Measured values from patent publication US10525069B2, “Treatment of urinary tract infection” (BIOMEDICALS SWEDEN AB, priority 2014, dated 2020).

Test system: UTI
Assay: Clinical course of UTI (occurrence, relapse, symptoms) in treated women
Assay type: in vivo, human
Conditions: Example 4: person, antibiotic received twice, before treatment with the composition
Experimental: One wheelchair-bound person, with recurrent UTI (UTI every week) was treated according to an embodiment of the invention. Prior to the treatment, the urine of the person was tested using bacteria test strips (NITRISTIC®, RAERAD Products, Sweden) following the instructions from the manufacturer. […] The person was given a composition with 1 g calcium carbonate (pH-KALK, pH Balans AB, Sweden) together with 2 g D-mannose (DM, BECKMAN-KENKO GMBH, Germany) or 1 g citric acid (SANTA MARIA AB, Sweden) together with 2 g D-mannose (DM, BECKMAN-KENKO GMBH, Germany). The compositions were taken in an alternating administration pattern 5 times per day (see Table 2 for details). The initial treatment lasted for 4 days. […] After the initial treatment, the person continued with the treatment to prevent UTI according to Table 2 alternating pH three times a day for five months. […] After discontinuing the treatment, the person relapsed with UTI within 3 weeks.
Prior to the treatment, the urine was tested using bacteria test strips (NITRISTIC®, RAERAD Products, Sweden) following the instructions from the manufacturer.
The person was then treated according to an embodiment of the invention (see Table 4 for details). […] Furthermore the bacteria test strips were negative.

SMILES: CC(C)(C)C(=O)OCOC(=O)[C@@H]1N2C(=O)[C@@H](/N=C/N3CCCCCC3)[C@H]2SC1(C)C [SELEXID]
- result of antibiotic treatment against UTI: no apparent results
